According to patent US8765959B2, “Piperidine derivatives” (Boehringer Ingelheim International GmbH, priority 2011, dated 2014):

What follows are molecules tested against T1, human ACC2 (Homo sapiens, UniProt O00763) (assay: ACC2 assay, spectrophotometric 384 well assay (NADH-linked, coupled lactate dehydrogenase/pyruvate kinase)). Settings: not given.
T1 construct: made in house; host or cells: insect cells (baculoviral expression system)
Format: biochemical
Procedure: Spectrophotometric 384 Well Assay
Malonyl CoA formation by acetyl CoA carboxylases is stoichometrically linked to the consumption of ATP. ACC2 activity is measured in a NADH-linked kinetic method measuring ADP generated during the ACC reaction using a coupled lactate dehydrogenase/pyruvate kinase reaction.
For biological testing, a human ACC2 construct which lacks the 128 amino acids at the N-terminus for increased solubility (nt 385-6966 in Genbank entry AJ575592) is cloned. The protein is then expressed in insect cells using a baculoviral expression system. Protein purification is performed by anion exchange.
All compounds are dissolved in dimethyl sulfoxide (DMSO) to a concentration of 10 mM.
Assay reactions are then carried out in 384-well plates, with hACC2 in an appropriate dilution and at final assay concentrations (f.c.) of 100 mM Tris (pH 7.5), 10 mM trisodium citrate, 25 mM KHCO3, 10 mM MgCl2, 0.5 mg/ml BSA, 3.75 mM reduced L-glutathione, 15 U/ml lactate dehydrogenase, 0.5 mM phosphoenolpyruvate, 15 U/ml pyruvate kinase, compounds at different concentrations at final DMSO concentrations of 1%.
The enzymatic reaction is then started by addition of a mixture of NADH, acetyl Coenzyme A (both 200 μM f.c.) and ATP (500 uM f.c.). The decrease of the optical density (slope S) is then determined at 25° C. at a wavelength of 340 nm over 15 minutes in a spectrophotometric reader.
Each assay microtiter plate contains wells with vehicle instead of compound as controls for the non-inhibited enzyme (100% CTL; ‘HIGH’) and wells without acetyl-CoA as controls for non-specific NADH degradation (0% CTL; ‘LOW’).
The slope S is used for calculation of % CTL=(S(compound)−S(‘LOW’))/(S(‘HIGH’)−S(‘LOW’))*100. Compounds will give values between 100% CTL (no inhibition) and 0% CTL (complete inhibition).
For IC50 value determination, the sample slope in the presence of the test compound after subtraction of the low controls (S(compound)−S(‘LOW’)) are used.
An IC50 value is derived from the compound slopes at different dosages after subtraction of the low controls (S(compound)−S(‘LOW’)) by non-linear regression curve fitting (equation y=(A+((B−A)/(1+((C/x)^D))))).

T1 sequence (O00763 129-2458 limits assumed): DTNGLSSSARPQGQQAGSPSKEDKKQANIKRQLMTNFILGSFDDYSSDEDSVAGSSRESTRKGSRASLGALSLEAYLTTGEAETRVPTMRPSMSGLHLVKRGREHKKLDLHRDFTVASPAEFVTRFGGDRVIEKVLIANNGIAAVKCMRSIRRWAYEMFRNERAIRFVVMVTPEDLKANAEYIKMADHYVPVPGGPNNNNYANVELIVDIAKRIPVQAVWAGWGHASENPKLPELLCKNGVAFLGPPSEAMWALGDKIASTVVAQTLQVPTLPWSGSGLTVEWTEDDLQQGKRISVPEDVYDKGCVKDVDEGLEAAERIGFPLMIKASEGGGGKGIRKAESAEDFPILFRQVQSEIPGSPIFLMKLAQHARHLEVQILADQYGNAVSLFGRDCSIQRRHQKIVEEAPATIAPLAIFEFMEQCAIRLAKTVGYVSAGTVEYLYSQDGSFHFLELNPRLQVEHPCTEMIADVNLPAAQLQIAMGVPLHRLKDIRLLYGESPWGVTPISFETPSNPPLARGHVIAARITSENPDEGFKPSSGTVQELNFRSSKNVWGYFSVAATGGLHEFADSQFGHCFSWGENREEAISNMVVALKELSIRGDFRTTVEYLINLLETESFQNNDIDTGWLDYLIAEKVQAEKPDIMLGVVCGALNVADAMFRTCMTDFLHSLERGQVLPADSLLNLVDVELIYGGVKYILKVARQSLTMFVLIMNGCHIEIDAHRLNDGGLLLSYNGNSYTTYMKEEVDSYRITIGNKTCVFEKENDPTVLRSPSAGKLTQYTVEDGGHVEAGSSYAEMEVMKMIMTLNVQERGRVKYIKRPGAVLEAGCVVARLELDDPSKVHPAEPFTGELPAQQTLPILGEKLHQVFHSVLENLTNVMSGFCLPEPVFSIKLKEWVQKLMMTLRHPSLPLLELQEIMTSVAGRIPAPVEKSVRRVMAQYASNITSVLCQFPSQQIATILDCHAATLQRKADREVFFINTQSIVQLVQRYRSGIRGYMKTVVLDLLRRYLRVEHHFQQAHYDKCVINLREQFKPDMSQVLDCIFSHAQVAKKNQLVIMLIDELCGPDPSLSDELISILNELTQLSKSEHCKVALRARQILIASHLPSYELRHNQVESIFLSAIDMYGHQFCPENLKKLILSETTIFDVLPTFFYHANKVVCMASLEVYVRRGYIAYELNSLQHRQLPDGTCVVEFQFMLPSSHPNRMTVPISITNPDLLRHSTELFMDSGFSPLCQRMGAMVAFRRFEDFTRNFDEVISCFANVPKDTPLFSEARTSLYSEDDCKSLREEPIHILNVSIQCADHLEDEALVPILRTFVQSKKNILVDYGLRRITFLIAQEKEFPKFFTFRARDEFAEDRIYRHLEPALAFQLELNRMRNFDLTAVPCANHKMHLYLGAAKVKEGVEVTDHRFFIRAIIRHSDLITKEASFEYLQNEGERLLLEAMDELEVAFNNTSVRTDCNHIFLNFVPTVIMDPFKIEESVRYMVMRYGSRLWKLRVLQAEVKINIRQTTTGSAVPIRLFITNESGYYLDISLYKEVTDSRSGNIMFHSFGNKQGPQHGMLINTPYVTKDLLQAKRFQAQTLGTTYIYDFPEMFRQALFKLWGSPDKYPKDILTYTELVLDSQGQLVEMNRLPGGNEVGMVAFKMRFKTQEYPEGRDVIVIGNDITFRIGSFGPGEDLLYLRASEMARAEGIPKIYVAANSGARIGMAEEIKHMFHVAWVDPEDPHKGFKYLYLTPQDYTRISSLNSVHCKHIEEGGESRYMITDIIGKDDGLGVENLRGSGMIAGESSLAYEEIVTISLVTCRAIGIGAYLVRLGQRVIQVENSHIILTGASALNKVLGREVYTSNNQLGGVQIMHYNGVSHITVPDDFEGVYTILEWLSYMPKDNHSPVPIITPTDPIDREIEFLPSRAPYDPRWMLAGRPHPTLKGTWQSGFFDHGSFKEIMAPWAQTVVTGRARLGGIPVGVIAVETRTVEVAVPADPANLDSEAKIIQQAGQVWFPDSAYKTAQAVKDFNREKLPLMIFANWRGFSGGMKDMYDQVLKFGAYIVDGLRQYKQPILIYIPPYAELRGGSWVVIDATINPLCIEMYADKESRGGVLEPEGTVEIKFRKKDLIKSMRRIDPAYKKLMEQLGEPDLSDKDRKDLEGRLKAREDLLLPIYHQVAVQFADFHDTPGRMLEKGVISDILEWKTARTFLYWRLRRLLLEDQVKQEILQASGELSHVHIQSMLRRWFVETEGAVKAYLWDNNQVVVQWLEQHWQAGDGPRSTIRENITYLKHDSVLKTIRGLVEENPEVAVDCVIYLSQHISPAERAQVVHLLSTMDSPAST

Row | SMILES | IC50 [nM]
1 | CCOc1ccc(C2CCN(c3ccc([C@H](C)NC(=O)CF)cc3)CC2)cc1 [Example 3.8] | 440

Same assay, conditions: ACC2 assay; human ACC2 construct lacking 128 N-terminal amino acids; 25° C., 340 nm, 15 minutes; read-out: IC50

Row | IC50 [nM] | SMILES
2 | 70 | CCCOc1ccc(C2CCN(c3ccc([C@H](C)NC(C)=O)cc3)CC2)cc1 [Example 1.1, (S)—N-(1-{4-[4-(4-Propoxy-phenyl)-piperidin-1-yl]-phenyl}-ethyl)-acetamide]
3 | 150 | CCOc1ccc(C2CCN(c3ccc([C@H](C)NC(C)=O)cc3)CC2)cc1 [Example 1.2]
4 | 50 | CCCOc1ccc(C2CCN(c3ccc([C@H](C)NC(C)=O)cc3)CC2)c(C)c1 [Example 1.3]
5 | 230 | CC(=O)N[C@@H](C)c1ccc(N2CCC(c3ccc(OC4CCC4)cc3)CC2)cc1 [Example 1.4]
6 | 880 | CC(=O)N[C@@H](C)c1ccc(N2CCC(c3cccc(OCC4CC4)c3)CC2)cc1 [Example 1.5]
7 | 1120 | CCOc1cccc(C2CCN(c3ccc([C@H](C)NC(C)=O)cc3)CC2)c1 [Example 1.6]
8 | 90 | CC(=O)N[C@@H](C)c1ccc(N2CCC(c3ccc(OCC4CC4(F)F)cc3)CC2)cc1 (stereo partly shown) [Example 1.7]
9 | 680 | CCOc1ccc(C2CCN(c3ccc([C@H](C)NC(=O)C4CC4)cc3)CC2)cc1 [Example 1.8]
10 | 610 | CC(C)Oc1ccc(C2CCN(c3ccc([C@H](C)NC(=O)N(C)C)cc3)CC2)cc1 [Example 1.9]
11 | 800 | CC(C)Oc1ccc(C2CCN(c3ccc([C@H](C)NC(=O)C4CC4)cc3)CC2)cc1 [Example 1.10]
12 | 440 | CCOc1ccc(C2CCN(c3ccc([C@H](C)NC(C)=O)cc3)CC2)c(OC)c1 [Example 1.11]
13 | 3170 | CCOc1ccc(C2CCN(c3ccc([C@H](C)NC(C)=O)cc3)CC2)cn1 [Example 1.12]
14 | 450 | CC(=O)N[C@@H](C)c1ccc(N2CCC(c3cccc(OC4CCC4)c3)CC2)cc1 [Example 1.14]
15 | 1850 | C[C@H](NC(=O)C1CC1)c1ccc(N2CCC(c3ccc(OCC4CC4)cc3)CC2)cc1 [Example 1.15]
16 | 1240 | C[C@H](NC(=O)C1CC1)c1ccc(N2CCC(c3ccc(OC4CCC4)cc3)CC2)cc1 [Example 1.16]
17 | 820 | CCOc1ccc(C2CCN(c3ccc([C@H](C)NC(=O)N(C)C)cc3)CC2)cc1 [Example 1.17]
18 | 820 | CCOc1cc(C2CCN(c3ccc([C@H](C)NC(C)=O)cc3)CC2)ccn1 [Example 1.19]
19 | 660 | CCCOc1cccc(C2CCN(c3ccc([C@H](C)NC(C)=O)cc3)CC2)c1 [Example 1.20]
20 | 640 | CCCOc1ccc(C2CCN(c3ccc([C@H](C)NC(=O)C4CC4)cc3)CC2)cc1 [Example 1.21]
21 | 250 | C[C@H](NC(=O)N(C)C)c1ccc(N2CCC(c3ccc(OC4CCC4)cc3)CC2)cc1 [Example 1.22]

Row | IC50 [nM] | SMILES
22 | 540 | C[C@H](NC(=O)N(C)C)c1ccc(N2CCC(c3ccc(OCC4CC4)cc3)CC2)cc1 [Example 1.24]
23 | 370 | CC(=O)N[C@@H](C)c1ccc(N2CCC(c3cccc(OC(C)C)c3)CC2)cc1 [Example 1.25]
24 | 340 | CCCOc1ccc(C2CCN(c3ccc([C@H](C)NC(=O)N(C)C)cc3)CC2)cc1 [Example 1.26]
25 | 2160 | COc1ccc(C2CCN(c3ccc([C@H](C)NC(C)=O)cc3)CC2)cc1 [Example 1.27]
26 | 150 | CC(=O)NC(C)c1ccc(N2CCC(c3ccc(OCC4CC4)cc3F)CC2)c(F)c1 (stereo not shown) [Example 1.31]
27 | 230 | CCCOc1ccc(C2CCN(c3ccc(C(C)NC(C)=O)cc3F)CC2)cc1 (stereo not shown) [Example 1.32]
28 | 460 | CC(=O)NC(C)c1ccc(N2CCC(c3ccc(OC(C)C)cc3)CC2)c(F)c1 (stereo not shown) [Example 1.33]
29 | 1270 | CCOc1cccc(C2CCN(c3ccc(C(C)NC(C)=O)c(F)c3)CC2)c1 (stereo not shown) [Example 1.41]
30 | 1260 | CC(=O)NC(C)c1ccc(N2CCC(c3cccc(OC(C)C)c3)CC2)cc1F (stereo not shown) [Example 1.42]
31 | 160 | CCCOc1ccc(C2CCN(c3ccc(C(C)NC(C)=O)c(F)c3)CC2)c(C)c1 (stereo not shown) [Example 1.44]
32 | 350 | CCOc1ccc(C2CCN(c3ccc(C(C)NC(C)=O)c(F)c3)CC2)cc1 (stereo not shown) [Example 1.45]
33 | 370 | CC(=O)NC(C)c1ccc(N2CCC(c3ccc(OC(C)C)cc3)CC2)cc1F (stereo not shown) [Example 1.46]
34 | 430 | CC(=O)NC(C)c1ccc(N2CCC(c3cccc(OC4CCC4)c3)CC2)cc1F (stereo not shown) [Example 1.47]
35 | 460 | CC(=O)NC(C)c1ccc(N2CCC(c3ccc(OCC4CC4)cc3F)CC2)cc1F (stereo not shown) [Example 1.48]
36 | 4410 | COc1cc(C(C)NC(C)=O)ccc1N1CCC(c2ccc(OC3CCC3)cc2)CC1 (stereo not shown) [Example 1.51]
37 | 4230 | CCCOc1ccc(C2CCN(c3ccc(C(C)NC(C)=O)cc3OC)CC2)cc1 (stereo not shown) [Example 1.52]
38 | 1220 | CCOc1ccc(C2CCN(c3ccc(CC(C)NC(C)=O)cc3)CC2)cc1 (stereo not shown) [Example 1.60]
39 | 4470 | COc1ccc(C2CCN(c3ccc(CC(C)NC(C)=O)cc3)CC2)cc1 (stereo not shown) [Example 1.61]
40 | 8470 | CCOc1ccc(C2CCN(c3ccc(CCC(C)NC(C)=O)cc3)CC2)cc1 (stereo not shown) [Example 1.70]
41 | 4150 | CCOc1ccc(C2CCN(c3ccc([C@H](C)NC(=O)C4(C#N)CC4)cc3)CC2)cc1 [Example 2.1, (S)-1-Cyano-cyclopropanecarboxylic acid (1-{4-[4-(4-ethoxy-phenyl)-piperidin-1-yl]-phenyl}-ethyl)-amide]

Row | IC50 [nM] | SMILES
42 | 690 | CCOc1ccc(C2CCN(c3ccc([C@H](C)NC(=O)c4cncs4)cc3)CC2)cc1 [Example 2.2]
43 | 1210 | CCOc1ccc(C2CCN(c3ccc([C@H](C)NC(=O)CSC)cc3)CC2)cc1 [Example 2.3]
44 | 710 | CCOc1ccc(C2CCN(c3ccc([C@H](C)NC(=O)CC)cc3)CC2)cc1 [Example 2.4]
45 | 6910 | CCOc1ccc(C2CCN(c3ccc([C@H](C)NC(=O)COC)cc3)CC2)cc1 [Example 2.5]
46 | 110 | CCOc1ccc(C2CCN(c3ccc([C@H](C)NC(=O)C(F)(F)F)cc3)CC2)cc1 [Example 2.6]
47 | 520 | CCOc1ccc(C2CCN(c3ccc([C@H](C)NC(=O)C4(C)CC4)cc3)CC2)cc1 [Example 2.7]
48 | 2770 | CCOc1ccc(C2CCN(c3ccc([C@H](C)NC(=O)c4coc(NC(C)=O)n4)cc3)CC2)cc1 [Example 3.1, (S)-2-Acetylamino-oxazole-4-carboxylic acid (1-{4-[4-(4-ethoxy-phenyl)-piperidin-1-yl]-phenyl}-ethyl)-amide]
49 | 380 | CCOc1ccc(C2CCN(c3ccc([C@H](C)NC(=O)C(F)F)cc3)CC2)cc1 [Example 3.2]
50 | 760 | CCOc1ccc(C2CCN(c3ccc([C@H](C)NC(=O)C(C)F)cc3)CC2)cc1 (stereo partly shown) [Example 3.3]
51 | 4880 | CCOc1ccc(C2CCN(c3ccc([C@H](C)NC(=O)Cc4cc[nH]c4)cc3)CC2)cc1 [Example 3.4]
52 | 4530 | CCOc1ccc(C2CCN(c3ccc([C@H](C)NC(=O)c4cncc(NC(C)=O)c4)cc3)CC2)cc1 [Example 3.5]
53 | 200 | CCOc1ccc(C2CCN(c3ccc([C@H](C)NC(=O)c4sc(NC(C)=O)nc4C)cc3)CC2)cc1 [Example 3.6]
54 | 1480 | CCOc1ccc(C2CCN(c3ccc([C@H](C)NC(=O)c4csc(NC(C)=O)n4)cc3)CC2)cc1 [Example 3.7]
55 | 4980 | CCOc1ccc(C2CCN(c3ccc([C@H](C)NC(=O)CO)cc3)CC2)cc1 [Example 3.9]
56 | 1980 | CCOc1ccc(C2CCN(c3ccc([C@H](C)NC(=O)N(C)CC)cc3)CC2)cc1 [Example 4.1, (S)-3-(1-{4-[4-(4-Ethoxy-phenyl)-piperidin-1-yl]-phenyl}-ethyl)-1-ethyl-1-methyl-urea]
57 | 1160 | CCOc1ccc(C2CCN(c3ccc([C@H](C)NC(=O)N(C)c4cccnc4)cc3)CC2)cc1 [Example 4.2]
58 | 2360 | CCOc1ccc(C2CCN(c3ccc([C@H](C)NC(=O)N4CCOCC4)cc3)CC2)cc1 [Example 4.3]
59 | 3690 | CCOc1ccc(C2CCN(c3ccc([C@H](C)NC(=O)N(CC)CC)cc3)CC2)cc1 [Example 4.4]
60 | 2090 | CCOc1ccc(C2CCN(c3ccc([C@H](C)NC(=O)OC)cc3)CC2)cc1 [Example 5.1, (S)-(1-{4-[4-(4-Ethoxy-phenyl)-piperidin-1-yl]-phenyl}-ethyl)-carbamic acid methyl ester]
61 | 3430 | CCOc1ccc(C2CCN(c3ccc([C@H](C)N(C)C(C)=O)cc3)CC2)cc1 [Example 6.1, (S)—N-(1-{4-[4-(4-Ethoxy-phenyl)-piperidin-1-yl]-phenyl}-ethyl)-N-methyl-acetamide]
